{"source": "PubChem BioAssay AID1963441", "about": "(Molecular Pharmacology Branch, DTP, NCI, 2024)", "tested_on": "NCI-H1876 complex spheroid growth, % test/control", "assay": "Anticancer human tumor NCI-H1876 cell line growth inhibition [Asc];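 on all read-outs here: compound exposure lasted 7 days starting three days after seeding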;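 on viability, T/C: 100% = DMSO vehicle control wells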", "settings": "for IC50: curve of first compound; for viability, T/C: stronger effect = lower value", "summary_of_the_method": "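Concentration series start at each agent's clinical Cmax, or at 10 microM when none is established, and drop in half-log steps; agents are applied alone or together to complex spheroids built with HUVEC and hMSC.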", "key": {"[1]": {"settings": "second compound 0.00316 µM, first compound 0.0316 µM"}, "[2]": {"settings": "second compound 0.00316 µM, first compound 0.1 µM"}, "[3]": {"settings": "second compound 0.01 µM, first compound 0.0316 µM"}, "[4]": {"settings": "second compound 0.01 µM, first compound 0.1 µM"}, "[5]": {"settings": "second compound 0.0316 µM, first compound 0.0316 µM"}, "[6]": {"settings": "second compound 0.0316 µM, first compound 0.1 µM"}, "[7]": {"settings": "second compound 0.1 µM, first compound 0.0316 µM"}, "[8]": {"settings": "second compound 0.1 µM, first compound 0.1 µM"}, "[9]": {"settings": "second compound 0.316 µM, first compound 0.0316 µM"}, "[10]": {"settings": "second compound 0.316 µM, first compound 0.1 µM"}, "[11]": {"settings": "second compound 1 µM, first compound 0.0316 µM"}, "[12]": {"settings": "second compound 1 µM, first compound 0.1 µM"}}, "data": [{"compound": "Cn1ncnc1[C@H]1c2n[nH]c(=O)c3cc(F)cc(c23)N[C@@H]1c1ccc(F)cc1", "note": "+ CNC(C)C(=O)NC1CN(S(=O)(=O)c2cccc(S(=O)(=O)N3CCC4CCC(C(=O)NC(c5ccccc5)c5ccccc5)N4C(=O)C(NC(=O)C(C)NC)C3)c2)CCC2CCC(C(=O)NC(c3ccccc3)c3ccccc3)N2C1=O", "values": [{"measurement": "IC50", "setting": "second compound 0.00316 µM", "value": "> 0.1", "unit": "µM"}, {"measurement": "IC50", "setting": "second compound 0.01 µM", "value": "> 0.1", "unit": "µM"}, {"measurement": "IC50", "setting": "second compound 0.0316 µM", "value": "> 0.1", "unit": "µM"}, {"measurement": "IC50", "setting": "second compound 0.1 µM", "value": "> 0.1", "unit": "µM"}, {"measurement": "IC50", "setting": "second compound 0.316 µM", "value": "> 0.1", "unit": "µM"}, {"measurement": "IC50", "setting": "second compound 1 µM", "value": "> 0.1", "unit": "µM"}, {"measurement": "viability, T/C", "setting": "second compound 0.00316 µM, first compound 0.000316 µM", "value": 72.3, "unit": "%"}, {"measurement": "viability, T/C", "setting": "second compound 0.00316 µM, first compound 0.001 µM", "value": 63.5, "unit": "%"}, {"measurement": "viability, T/C", "setting": "second compound 0.00316 µM, first compound 0.00316 µM", "value": 68.2, "unit": "%"}, {"measurement": "viability, T/C", "setting": "second compound 0.00316 µM, first compound 0.01 µM", "value": 55.5, "unit": "%"}, {"measurement": "viability, T/C", "setting": "[1]", "value": 51.2, "unit": "%"}, {"measurement": "viability, T/C", "setting": "[2]", "value": 54.3, "unit": "%"}, {"measurement": "viability, T/C", "setting": "second compound 0.01 µM, first compound 0.000316 µM", "value": 92.8, "unit": "%"}, {"measurement": "viability, T/C", "setting": "second compound 0.01 µM, first compound 0.001 µM", "value": 103, "unit": "%"}, {"measurement": "viability, T/C", "setting": "second compound 0.01 µM, first compound 0.00316 µM", "value": 87.6, "unit": "%"}, {"measurement": "viability, T/C", "setting": "second compound 0.01 µM, first compound 0.01 µM", "value": 95.2, "unit": "%"}, {"measurement": "viability, T/C", "setting": "[3]", "value": 96.5, "unit": "%"}, {"measurement": "viability, T/C", "setting": "[4]", "value": 95.8, "unit": "%"}, {"measurement": "viability, T/C", "setting": "second compound 0.0316 µM, first compound 0.000316 µM", "value": 94.8, "unit": "%"}, {"measurement": "viability, T/C", "setting": "second compound 0.0316 µM, first compound 0.001 µM", "value": 99, "unit": "%"}, {"measurement": "viability, T/C", "setting": "second compound 0.0316 µM, first compound 0.00316 µM", "value": 104, "unit": "%"}, {"measurement": "viability, T/C", "setting": "second compound 0.0316 µM, first compound 0.01 µM", "value": 112, "unit": "%"}, {"measurement": "viability, T/C", "setting": "[5]", "value": 109, "unit": "%"}, {"measurement": "viability, T/C", "setting": "[6]", "value": 103, "unit": "%"}, {"measurement": "viability, T/C", "setting": "second compound 0.1 µM, first compound 0.000316 µM", "value": 105, "unit": "%"}, {"measurement": "viability, T/C", "setting": "second compound 0.1 µM, first compound 0.001 µM", "value": 102, "unit": "%"}, {"measurement": "viability, T/C", "setting": "second compound 0.1 µM, first compound 0.00316 µM", "value": 97.3, "unit": "%"}, {"measurement": "viability, T/C", "setting": "second compound 0.1 µM, first compound 0.01 µM", "value": 91.5, "unit": "%"}, {"measurement": "viability, T/C", "setting": "[7]", "value": 97.4, "unit": "%"}, {"measurement": "viability, T/C", "setting": "[8]", "value": 102, "unit": "%"}, {"measurement": "viability, T/C", "setting": "second compound 0.316 µM, first compound 0.000316 µM", "value": 97.7, "unit": "%"}, {"measurement": "viability, T/C", "setting": "second compound 0.316 µM, first compound 0.001 µM", "value": 96.7, "unit": "%"}, {"measurement": "viability, T/C", "setting": "second compound 0.316 µM, first compound 0.00316 µM", "value": 93.4, "unit": "%"}, {"measurement": "viability, T/C", "setting": "second compound 0.316 µM, first compound 0.01 µM", "value": 110, "unit": "%"}, {"measurement": "viability, T/C", "setting": "[9]", "value": 115, "unit": "%"}, {"measurement": "viability, T/C", "setting": "[10]", "value": 97.3, "unit": "%"}, {"measurement": "viability, T/C", "setting": "second compound 1 µM, first compound 0.000316 µM", "value": 114, "unit": "%"}, {"measurement": "viability, T/C", "setting": "second compound 1 µM, first compound 0.001 µM", "value": 99.1, "unit": "%"}, {"measurement": "viability, T/C", "setting": "second compound 1 µM, first compound 0.00316 µM", "value": 90.1, "unit": "%"}, {"measurement": "viability, T/C", "setting": "second compound 1 µM, first compound 0.01 µM", "value": 116, "unit": "%"}, {"measurement": "viability, T/C", "setting": "[11]", "value": 103, "unit": "%"}, {"measurement": "viability, T/C", "setting": "[12]", "value": 104, "unit": "%"}]}, {"compound": "C=CC(=O)N1CCN(c2nc(=O)n(-c3c(C)ccnc3C(C)C)c3nc(-c4c(O)cccc4F)c(F)cc23)C(C)C1", "note": "(centres undefined) + CNC(C)C(=O)NC1CN(S(=O)(=O)c2cccc(S(=O)(=O)N3CCC4CCC(C(=O)NC(c5ccccc5)c5ccccc5)N4C(=O)C(NC(=O)C(C)NC)C3)c2)CCC2CCC(C(=O)NC(c3ccccc3)c3ccccc3)N2C1=O", "values": [{"measurement": "IC50", "setting": "second compound 0.00316 µM", "value": "> 10", "unit": "µM"}, {"measurement": "IC50", "setting": "second compound 0.01 µM", "value": "> 10", "unit": "µM"}, {"measurement": "IC50", "setting": "second compound 0.0316 µM", "value": "> 10", "unit": "µM"}, {"measurement": "IC50", "setting": "second compound 0.1 µM", "value": "> 10", "unit": "µM"}, {"measurement": "IC50", "setting": "second compound 0.316 µM", "value": "> 10", "unit": "µM"}, {"measurement": "IC50", "setting": "second compound 1 µM", "value": "> 10", "unit": "µM"}, {"measurement": "viability, T/C", "setting": "[1]", "value": 103, "unit": "%"}, {"measurement": "viability, T/C", "setting": "[2]", "value": 87.6, "unit": "%"}, {"measurement": "viability, T/C", "setting": "second compound 0.00316 µM, first compound 0.316 µM", "value": 115, "unit": "%"}, {"measurement": "viability, T/C", "setting": "second compound 0.00316 µM, first compound 1 µM", "value": 94.9, "unit": "%"}, {"measurement": "viability, T/C", "setting": "second compound 0.00316 µM, first compound 3.16 µM", "value": 121, "unit": "%"}, {"measurement": "viability, T/C", "setting": "second compound 0.00316 µM, first compound 10 µM", "value": 131, "unit": "%"}, {"measurement": "viability, T/C", "setting": "[3]", "value": 104, "unit": "%"}, {"measurement": "viability, T/C", "setting": "[4]", "value": 99, "unit": "%"}, {"measurement": "viability, T/C", "setting": "second compound 0.01 µM, first compound 0.316 µM", "value": 99.1, "unit": "%"}, {"measurement": "viability, T/C", "setting": "second compound 0.01 µM, first compound 1 µM", "value": 99.3, "unit": "%"}, {"measurement": "viability, T/C", "setting": "second compound 0.01 µM, first compound 3.16 µM", "value": 107, "unit": "%"}, {"measurement": "viability, T/C", "setting": "second compound 0.01 µM, first compound 10 µM", "value": 111, "unit": "%"}, {"measurement": "viability, T/C", "setting": "[5]", "value": 102, "unit": "%"}, {"measurement": "viability, T/C", "setting": "[6]", "value": 101, "unit": "%"}, {"measurement": "viability, T/C", "setting": "second compound 0.0316 µM, first compound 0.316 µM", "value": 121, "unit": "%"}, {"measurement": "viability, T/C", "setting": "second compound 0.0316 µM, first compound 1 µM", "value": 102, "unit": "%"}, {"measurement": "viability, T/C", "setting": "second compound 0.0316 µM, first compound 3.16 µM", "value": 116, "unit": "%"}, {"measurement": "viability, T/C", "setting": "second compound 0.0316 µM, first compound 10 µM", "value": 114, "unit": "%"}, {"measurement": "viability, T/C", "setting": "[7]", "value": 100, "unit": "%"}, {"measurement": "viability, T/C", "setting": "[8]", "value": 106, "unit": "%"}, {"measurement": "viability, T/C", "setting": "second compound 0.1 µM, first compound 0.316 µM", "value": 104, "unit": "%"}, {"measurement": "viability, T/C", "setting": "second compound 0.1 µM, first compound 1 µM", "value": 106, "unit": "%"}, {"measurement": "viability, T/C", "setting": "second compound 0.1 µM, first compound 3.16 µM", "value": 114, "unit": "%"}, {"measurement": "viability, T/C", "setting": "second compound 0.1 µM, first compound 10 µM", "value": 106, "unit": "%"}, {"measurement": "viability, T/C", "setting": "[9]", "value": 114, "unit": "%"}, {"measurement": "viability, T/C", "setting": "[10]", "value": 101, "unit": "%"}, {"measurement": "viability, T/C", "setting": "second compound 0.316 µM, first compound 0.316 µM", "value": 100, "unit": "%"}, {"measurement": "viability, T/C", "setting": "second compound 0.316 µM, first compound 1 µM", "value": 101, "unit": "%"}, {"measurement": "viability, T/C", "setting": "second compound 0.316 µM, first compound 3.16 µM", "value": 115, "unit": "%"}, {"measurement": "viability, T/C", "setting": "second compound 0.316 µM, first compound 10 µM", "value": 109, "unit": "%"}, {"measurement": "viability, T/C", "setting": "[11]", "value": 111, "unit": "%"}, {"measurement": "viability, T/C", "setting": "[12]", "value": 91.9, "unit": "%"}, {"measurement": "viability, T/C", "setting": "second compound 1 µM, first compound 0.316 µM", "value": 118, "unit": "%"}, {"measurement": "viability, T/C", "setting": "second compound 1 µM, first compound 1 µM", "value": 113, "unit": "%"}, {"measurement": "viability, T/C", "setting": "second compound 1 µM, first compound 3.16 µM", "value": 116, "unit": "%"}, {"measurement": "viability, T/C", "setting": "second compound 1 µM, first compound 10 µM", "value": 117, "unit": "%"}]}]}
